Laboratory results taken from patent US20260102420A1, “CANCER IMMUNOTHERAPY” (Hoffmann-La Roche Inc., priority 2022, published 2026).

Assays:
CD3+ T cells = assay: T cell activation (CD25/CD69) by flow cytometry after co-culture with pre-treated MKN45; format: cell-based, human; conditions: CD3+ T cells from the same co-cultures; FIGS. 9D and 9E
Protocol: (§1) FIGS. 9A, 9B, 9C, 9D, and 9E. UAP1 inhibition with Ac4Glc2Bz in tumor cells improves T cell-mediated killing and T cell activation. FIG. 9A: Detection of UDP-HexNAc in MKN45 cell lysates after 2h treatment with Ac4Glc2Bz. FIGS. 9B and 9C: MKN45 were pre-treated with the indicated concentrations of Ac4Glc2Bz for 2 h. Afterwards, the compound was removed from the culture and T cells were added alongside TCBs at the indicated concentrations. Graphs show the % of remaining tumor cells after 105h from co-culture. DP47 TCB was used as negative control. FIGS. 9D and 9E: Flow cytometry of CD3+ T cells from the experiments in FIGS. 9B and 9C. T cell activation was assessed as previously described.
T cell-mediated killing assay was performed as described above. At the end of the experiment, T cells were collected from the co-culture plates and subjected to immunofluorescence for the following markers: CD3, CD8, CD25, CD69 and Near-IR live/dead staining (Thermo Scientific). Cells were gated on live CD3^+ cells and % Activated cells was calculated as such: […]. For the proliferation assay, T cells were pre-stained with CFSE (Biolegend) according to manufacturer's instructions, and then used in a T cell-mediated killing assay with either MKN45-NLR wt or MKN45-NLR KO cells for 4 days. Afterwards, cells were harvested and CFSE was assessed by FACS. […]

MKN45 = assay: T cell-mediated killing assay, MKN45 pre-treated with compound, co-culture with T cells and TCBs; format: cell-based, human; conditions: MKN45 pre-treated 2 h, compound removed, T cells and TCBs added; FIGS. 9B and 9C
Protocol: as §1
25000 MKN45-nuclight red (NLR), 20000 A549-hCEA and 10000 B16F10-NLR tumor cells (wt or UAP1 ko) were seeded in one well of a 96 well-plate. Afterwards TCBs or siinfekl were given at the indicated concentrations. Pan T cells or PBMCs, mouse splenocytes (from C57/BL6 or OT-I mice) were immediately added at the indicated E:T ratios. Co-cultures were incubated at 37° C. and 5% C02 in the Incucye S3 instrument (Sartorius) for the indicated time. […] For MKN45-NLR and B16F10-NLR, T cell-mediated killing was calculated based on the red fluorescent signal coming from the tumor cells. All values were first transformed to fold-change to time 0, and % specific lysis was calculated as follows: […]

UAP1 = target: T1, UAP1 (Homo sapiens, UniProt Q16222); assay: Detection of UDP-HexNAc by LC-MS in MKN45 cell lysates after 2h treatment; format: cell-based; conditions: MKN45 pre-treated for 2h, FIG. 9A
T1 construct: endogenous in cells; host or cells: MKN45 (human gastric adenocarcinoma cell line), wild type
T1 sequence (Q16222 whole entry): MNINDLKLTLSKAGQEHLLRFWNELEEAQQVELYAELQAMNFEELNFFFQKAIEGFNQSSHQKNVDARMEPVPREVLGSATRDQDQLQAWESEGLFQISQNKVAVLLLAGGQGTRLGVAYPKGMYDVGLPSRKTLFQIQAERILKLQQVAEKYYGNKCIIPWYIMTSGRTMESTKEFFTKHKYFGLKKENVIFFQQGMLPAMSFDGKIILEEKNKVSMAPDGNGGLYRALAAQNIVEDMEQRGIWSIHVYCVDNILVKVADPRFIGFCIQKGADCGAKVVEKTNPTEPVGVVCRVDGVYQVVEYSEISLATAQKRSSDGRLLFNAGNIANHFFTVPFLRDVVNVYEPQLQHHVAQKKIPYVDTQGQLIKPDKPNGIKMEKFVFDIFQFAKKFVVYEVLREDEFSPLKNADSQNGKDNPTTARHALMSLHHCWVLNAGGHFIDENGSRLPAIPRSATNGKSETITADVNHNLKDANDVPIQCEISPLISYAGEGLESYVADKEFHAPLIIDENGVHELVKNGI
Protocol: as §1
For the preparation of calibration samples Uridine-5′-diphospho-N-acetylglucosamine sodium salt was dissolved in an 80/20 mixture of water/methanol (v/v) to a concentration of 1.00 mg/ml. A stock solution for the preparation of QC samples was prepared separately using the same procedure with separate weighing of the reference substance. Further dilutions were done in water. For calibration and quality control samples, eight and three different concentrations of Uridine-5′-diphospho-N-acetylglucosamine (UDP HExNAc) spiked into phosphate-buffered saline (PBS) were used, respectively. Two different calibration ranges were applied. […]

For CC(=O)OCC1OC(OC(C)=O)C(NC(=O)c2ccccc2)C(OC(C)=O)[C@@H]1OC(C)=O (stereo partly drawn) [Ac4Glc2Bz], the T cell activation (CD3+ T cells) was “increased”, the “T cell mediated killing” value (MKN45) was “increased T cell mediated killing” and the “inhibition of UAP1 (UDP-HexNAc detection)” value (UAP1) was “dose-dependent inhibition of UAP1”.
